Reference: patent US20240409557A1, “5,6-FUSED AND 6,6-FUSED BICYCLIC ALCOHOLS AND ETHERS AND COMPOSITIONS FOR USE AS 15-PROSTAGLANDIN DEHYDROGENASE MODULATORS” (AMGEN INC., priority 2023, published 2024)

Tests used:
[1] = target: T1, human recombinant 15-PGDH (Homo sapiens, UniProt P15428); test: Recombinant 15-PGDH enzymatic inhibition assay (PGDH-Lumi, NADH signal); assay type: biochemical; settings: recombinant 15-PGDH; 15 min pre-incubation, 60 min reaction with PGE2 and NAD+, NADH signal
T1 sequence (P15428 1-266): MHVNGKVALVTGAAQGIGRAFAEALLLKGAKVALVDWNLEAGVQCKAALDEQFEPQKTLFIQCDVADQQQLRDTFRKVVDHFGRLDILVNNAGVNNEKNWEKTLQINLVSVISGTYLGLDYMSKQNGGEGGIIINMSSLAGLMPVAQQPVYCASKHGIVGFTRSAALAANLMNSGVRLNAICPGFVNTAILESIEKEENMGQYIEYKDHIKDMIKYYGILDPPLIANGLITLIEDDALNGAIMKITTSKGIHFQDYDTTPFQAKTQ
How it was run: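 Buffer 50 mM Tris pH 7.5 with 0.01% Tween-20 and […]; compound, 22 two-fold dilutions, pre-incubated with enzyme 15 min before substrate.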

[2] = target: T2, 15-PGDH in A549 cells (Homo sapiens, UniProt P15428); test: A549 cellular 15-PGDH assay (PGE2 accumulation, HTRF); assay type: cell-based; settings: interleukin-stimulated, inhibitor 24 hrs, PGE2 by competitive HTRF, read-out: A549 Cell Assay IC50
T2 construct: endogenous in cells; host or cells: A549
T2 sequence (P15428 1-266): T1 sequence (P15428 1-266)
Source text: This assay was used for the quantification of IL-13 induced Native Prostaglandin E2 (PGE2) produced by A549 cells (epithelial cells from lung carcinoma) in cell culture supernatants. […] PGE2 was detected in a competitive HTRF assay by using anti PGE2 antibody labeled with Europium cryptate, and PGE2 labeled with […]. The PGE2 present in the sample competes with the binding between the two HTRF detection solutions (reagents) and thereby prevents FRET from occurring. The specific signal is inversely proportional to the PGE2 concentration. From this binding data, IC50 values were calculated.

Compound	IC50 [1] [nM]	IC50 [2] [nM]
Cn1cc2cc(-c3ncc4cc([C@]5(O)C[C@@H](C(F)(F)F)C5)sc4n3)cnc2n1 [Compound C71C, cis-1-(2-(2-methyl-2H-pyrazolo[3,4-b]pyridin-5-yl)thieno[2,3-d]pyrimidin-6-yl)-3-(trifluoromethyl)cyclobutanol]	0.54	0.142
Cc1c([C@@H](CO)C2CC(F)(F)C2)sc2nc(-c3cnc4nn(C)cc4c3)ccc12 (single isomer, unassigned) [Compound B93R]	174	245
Cn1cc2cc(-c3ccc4cc([C@]5(O)C[C@@]6(CC6(F)F)C5)sc4n3)cnc2n1 (single isomer, unassigned) [Compound C88T, trans-1,1-difluoro-5-(6-(2-methyl-2H-pyrazolo[3,4-b]pyridin-5-yl)thieno[2,3-b]pyridin-2-yl)spiro[2.3]hexan-5-ol]	0.347	0.589
CCC[C@H](O)c1cc2ccc(-c3cnc4nn(C)cc4c3)nc2s1 (single isomer, unassigned) [Compound B27S]	12.3	1.78
CO[C@@H]1CC[C@@]1(O)c1cc2ccc(-c3cnc4nn(C)cc4c3)nc2s1 (single isomer, unassigned) [Compound C70SR]	2260	172
OC1(c2cc3ccc(-c4cncnc4)nc3s2)CC(F)(F)C1 [Compound C46, 3,3-difluoro-1-(6-(5-pyrimidinyl)thieno[2,3-b]pyridin-2-yl)cyclobutanol]	26.1	12.3
Cn1nnc2cc(-c3ccc4cc(C5(O)CC(F)(F)C5)sc4n3)cnc21 [Compound C51, 3,3-difluoro-1-(6-(3-methyl-3H-[1,2,3]triazolo[4,5-b]pyridin-6-yl)thieno[2,3-b]pyridin-2-yl)cyclobutanol]	2.19	1.1
COCC[C@H](O)c1cc2ccc(-c3cnc4nn(C)cc4c3)nc2s1 (single isomer, unassigned) [Compound B29S]	10.5	3.08
Cn1cc2cc(-c3ccc4cc(C5(O)CC6(COC6)C5)sc4n3)cnc2n1 [Compound C28]	0.472	0.452
Cn1nnc2cc(-c3ncc4cc([C@]5(O)C[C@](C)(C#N)C5)sc4n3)cnc21 (single isomer, unassigned) [Compound C98T, trans-3-hydroxy-1-methyl-3-(2-(3-methyl-3H-[1,2,3]triazolo[4,5-b]pyridin-6-yl)thieno[2,3-d]pyrimidin-6-yl)cyclobutanecarbonitrile]	1.73	2.66
CCC[C@@H](O)c1cc2ccc(-c3cnc4nn(C)cc4c3)nc2s1 (single isomer, unassigned) [Compound B27R]	0.255	0.728
Cn1ncc2cc(-c3ccc4cc([C@H](O)C5CCOCC5)sc4n3)cnc21 (single isomer, unassigned) [Compound B35R]	1.09	18.2
Cn1cc2cc(-c3cc(-c4ccnn4C)c4cc(C(O)C5CCC5)sc4n3)cnc2n1 (centres unmarked) [Compound B2, cyclobutyl(6-(2-methyl-2H-pyrazolo[3,4-b]pyridin-5-yl)-4-(1-methyl-1H-pyrazol-5-yl)thieno[2,3-b]pyridin-2-yl)methanol]	1.51	1.04
Cn1cc2cc(-c3ccc4cc([C@]5(O)C[C@@H](OC(F)(F)F)C5)sc4n3)cnc2n1 [Compound C67C, cis-1-(6-(2-methyl-2H-pyrazolo[3,4-b]pyridin-5-yl)thieno[2,3-b]pyridin-2-yl)-3-(trifluoromethoxy)cyclobutanol]	0.534	0.0187
Cn1cc2cc(-c3ccc4cc(C5(O)CC(C)(C)C5)sc4n3)cnc2n1 [Compound C26, 3,3-dimethyl-1-(6-(2-methyl-2H-pyrazolo[3,4-b]pyridin-5-yl)thieno[2,3-b]pyridin-2-yl)cyclobutanol]	0.273	0.0601
Cn1cc2cc(-c3ccc4nc([C@]5(O)C[C@@]6(CC6(F)F)C5)sc4n3)cnc2n1 (single isomer, unassigned) [Compound C115T, trans-1,1-difluoro-5-(5-(2-methyl-2H-pyrazolo[3,4-b]pyridin-5-yl)[1,3]thiazolo[5,4-b]pyridin-2-yl)spiro[2.3]hexan-5-ol]	0.513	1.39
CO[C@]1(C(F)(F)F)C[C@@](O)(c2cc3ccc(-c4cnc5nn(C)cc5c4)nc3s2)C1 (single isomer, unassigned) [Compound C66C, cis-3-methoxy-1-(6-(2-methyl-2H-pyrazolo[3,4-b]pyridin-5-yl)thieno[2,3-b]pyridin-2-yl)-3-(trifluoromethyl)cyclobutanol]	0.852	0.206
Cn1cc2cc(-c3ncc4cc([C@]5(O)C[C@](C)(C#N)C5)sc4n3)cnc2n1 (single isomer, unassigned) [Compound C96T, trans-3-hydroxy-1-methyl-3-(2-(2-methyl-2H-pyrazolo[3,4-b]pyridin-5-yl)thieno[2,3-d]pyrimidin-6-yl)cyclobutanecarbonitrile]	0.445	1.39
Cn1cc2cc(-c3ccc4cc(C5(O)CC6(CCCCC6)C5)sc4n3)cnc2n1 [Compound C52, 2-(6-(2-methyl-2H-pyrazolo[3,4-b]pyridin-5-yl)thieno[2,3-b]pyridin-2-yl)spiro[3.5]nonan-2-ol]	0.361	0.0938
Cn1cc2cc(-c3ncc4cc([C@]5(O)C[C@@H](C6CC6)C5)sc4n3)cnc2n1 [Compound C99C, cis-3-cyclopropyl-1-(2-(2-methyl-2H-pyrazolo[3,4-b]pyridin-5-yl)thieno[2,3-d]pyrimidin-6-yl)cyclobutanol]	0.291	0.666
Cn1cc2cc(-c3ncc4cc([C@]5(O)C[C@@](C)(C#N)C5)sc4n3)cnc2n1 (single isomer, unassigned) [Compound C96C, cis-3-hydroxy-1-methyl-3-(2-(2-methyl-2H-pyrazolo[3,4-b]pyridin-5-yl)thieno[2,3-d]pyrimidin-6-yl)cyclobutanecarbonitrile]	0.755	2.33
Cn1cc2cc(-c3ccc4cc([C@]5(O)C[C@@](C)(C#N)C5)sc4n3)cnc2n1 [Compound C63C, cis-3-hydroxy-1-methyl-3-(6-(2-methyl-2H-pyrazolo[3,4-b]pyridin-5-yl)thieno[2,3-b]pyridin-2-yl)cyclobutanecarbonitrile]	0.429	0.115

Second part, the molecule after the results:

IC50 [1] [nM]	IC50 [2] [nM]	Compound
1.86	7.99	Cn1ccc2cc(-c3ccc4cc([C@@H](O)C5CC(F)(F)C5)sc4n3)ccc2c1=O (single isomer, unassigned) [Compound B50S]
0.365	0.515	Cn1cc2cc(-c3ccc4cc([C@H](O)[C@H]5C[C@H](C(F)(F)F)C5)sc4n3)cnc2n1 (single isomer, unassigned) [Compound B84RT]
1.21	1.64	Cn1cc2cc(-c3ccc4c(N)c([C@H](O)C5CC(F)(F)C5)sc4n3)cnc2n1 (single isomer, unassigned) [Compound B95R]
9.58	5.27	Cn1cc2cc(-c3ccc4nc([C@@H](O)C5CC(F)(F)C5)sc4n3)cnc2n1 (single isomer, unassigned) [Compound B72S]
0.412	0.061	Cn1cc2cc(-c3ccc4sc([C@H](O)C5CC(F)(F)C5)cc4n3)cnc2n1 (single isomer, unassigned) [Compound B73R]
0.944	0.437	CC(C)n1ncc2cc(-c3ccc4cc(C(O)C5CC(F)(F)C5)sc4n3)cnc21 (centres unmarked) [Compound B65, (3,3-difluorocyclobutyl)(6-(1-(2-propanyl)-1H-pyrazolo[3,4-b]pyridin-5-yl)thieno[2,3-b]pyridin-2-yl)methanol]
0.706	0.37	[2H][C@@](O)(c1cc2ccc(-c3cnc4nn(C)cc4c3)nc2s1)C1CC(F)(F)C1 (single isomer, unassigned) [Compound B79S]
265	168	Cn1cc2cc(-c3ccc4cc([C@@H](O)C5CC(F)(F)C5)ccc4n3)cnc2n1 (single isomer, unassigned) [Compound D7S]
0.637	1.03	Cn1cc2cc(-c3ccc4cc(C(O)[C@H]5CCOC5)sc4n3)cnc2n1 (single isomer, unassigned) [B19(RS)S]
0.42	0.553	Cn1cc2cc(-c3ccc4cc(C(O)C5CCC(F)(F)CC5)sc4n3)cnc2n1 (centres unmarked) [Compound B31, (4,4-difluorocyclohexyl)(6-(2-methyl-2H-pyrazolo[3,4-b]pyridin-5-yl)thieno[2,3-b]pyridin-2-yl)methanol]
0.325	0.149	Cn1cc2cc(-c3ccc4cc([C@H](O)C5CC5)sc4n3)cnc2n1 (single isomer, unassigned) [Compound B16R]
13.8	196	O[C@@H](c1cc2ccc(-c3ccc4oncc4c3)nc2s1)C1CCOCC1 (single isomer, unassigned) [Compound B43R]
